Common to all, as to format: biochemical
One assay deals with T1, bGGPTase-I (Bos taurus, UniProt P29702+Q5EAD5).
T1 construct: Cerebral lobes from bovine brains were homogenized in lysis buffer; from tissue; host or cells: bovine brain (cerebral lobes)
The assay is described as follows: In vitro inhibition of geranylgeranyl protein transferase type I purified from bovine brain (transferase assay). Particulars: 500 nM Ras-CAIL, 100 nM geranylgeranyl diphosphate, 30 °C. The method, then: Purification of isoprenyl-protein transferases. All purification steps were performed at 4 ° C. Cerebral lobes from bovine brains were homogenized in lysis buffer containing 50 mM Tris-Cl, pH 8.0, 1 mM EGTA, 1 mM MgCl2, 5 mM dithiothreitol, 10 μg/mL aprotinin, 0.5 mM phenylmethyl sulfonyl fluoride (PMSF), 2 μg/mL antipain and 2 μg/mL leupeptin (M.D. Schaber et al. J. Biol. Chem., 265:14701 (1990)). Cellular debris and membranes were removed by centrifugation (10 000 g for 20 rain followed by 100 000 g for 30 minutes). The supematant was loaded directly onto a column (30 cm × 20 cm^2) of DEAE-Sephacel that had been equilibrated with lysis buffer. The column was washed with the same buffer and proteins were eluted with a linear gradient of NaCl (0-500 mM, 1 L+L) in the same buffer. Fractions (20 mL) were collected and those containing different transferase activities were pooled separately. This procedure resolved FTase and GGPTase-II from GGPTase-I. Each pool was then applied to an ω-Aminooctyl agarose colurctn (30 cm×4.9 cm^2) and eluted with a linear gradient of NaCl (0-500 mM, 500 mL+500 mL) in lysis buffer. Fractions containing both FTase and GGPTase-II were pooled. The GGPTase-I (termed "bGGPTase-I") so obtained was utilized in the assay described below.
Molecular biological manipulations. To construct the C-terminus CAAX box routants, pUC-[L68]RAS1(term.) was digested with the restriction enzymes HincII and NarI to create a vector into which oligonucleotides containing new C-terminal sequences could be ligated. Except where indicated, the amino acids preceding the CAAX sequence are SLK. […]
Transferase Assays. […] Filters were washed four times with 2 mL aliquots of 100% ethanol, mixed with scintillation fluid (10 mL) and then counted in a Beckman LS3801 scintillation counter.
(§1) For inhibition studies, assays were run as described above, except inhibitors were prepared as concentrated solutions in 100% dimethyl sulfoxide and then diluted 20-fold into the enzyme assay mixture. IC50 values were determined with both transferase substrates near KM concentrations. […]

A further assay deals with T2, FPTase (Homo sapiens, UniProt P49354+P49356).
T2 construct: made in house
Description: In vitro inhibition of recombinant farnesyl-protein transferase (transferase assay). Conditions: 650 nM Ras-CVLS, 100 nM farnesyl diphosphate, 30 °C.
Excerpt: Molecular biological manipulations. To construct the C-terminus CAAX box routants, pUC-[L68]RAS1(term.) was digested with the restriction enzymes HincII and NarI to create a vector into which oligonucleotides containing new C-terminal sequences could be ligated. Except where indicated, the amino acids preceding the CAAX sequence are SLK. To simplify the nomenclature, [L68]RAS1 (term.)SLKCVLS (J.B. Gibbs et al., Proc. Natl. Acad Sci. U.S.A., 86:6630 (1989)) will be referred to as Ras-CVLS, and this convention is used for all other mutants. The substrate for Frase was Ras-CVLS. The substrate for GGPTase-I was Ras-CAIL.
Transferase Assays. Isoprenyl-protein transferase activity assays were carried out at 30 ° C. unless noted otherwise. A typical reaction contained (in a final volume of 50 μL): [^3 H]farnesyl diphosphate or [^3 H]geranylgeranyl diphosphate, Ras protein, 50 mM HEPES, pH 7.5, 5 mM MgCl2, 5 mM dithiothreitol and isoprenyl-protein transferase. The FPTase employed in the assay was prepared by recombinant expression as described in Omer, C. A., Kral, A. M., Diehl, R. E., Prendergast, G. C., Powers, S., Allen, C. M., Gibbs, J. B. and Kohl, N. E. (1993) Biochemistry 32:5167-5176. After thermally pre-equilibrating the assay mixture in the absence of enzyme, reactions were initiated by the addition of isoprenyl-protein transferase and stopped at timed intervals (typically 15 min) by the addition of 1M HCl in ethanol (1 mL). The quenched reactions were allowed to stand for 15 m (to complete the precipitation process). After adding 2 mL of 100% ethanol, the reactions were vacuum-filtered through Whatman GF/C filters. Filters were washed four times with 2 mL aliquots of 100% ethanol, mixed with scintillation fluid (10 mL) and then counted in a Beckman LS3801 scintillation counter.
as §1

Another assay has as its target T3, hGGPTase-I (Homo sapiens, UniProt P49354+P53609).
T3 construct: made in house; host or cells: E. coli BL21(DE3), strain RD578
Description: In vitro inhibition of recombinant human geranylgeranyl protein transferase type I (transferase assay). Conditions: 500 nM Ras-CAIL, 100 nM geranylgeranyl diphosphate, 30 °C. An excerpt:
Cloning of human GGPTase-I βGGI subunit cDNAs. Approximately 1 nmol of GGPTase-I-I purified from bovine brain as described in Moomaw, J.F. and ,Casey, P.J. (1992) J Biol Chem 267:17438-17443, was subjected to electrophoresis on a 11% SDS-polyacrylamide gel and transferred to nitrocellulose paper. The nitrocellulose paper was then stained with Poneeau S to localize the subunit polypeptides. The 48 kDa and 43 kDa bands were excised from the nitroeellulose and sent to Harvard Microchem (Cambridge, Mass.) for processing. High-confidence sequences of five βGGI subunit peptides were obtained. The sequences of these peptides are listed below:
Two degenerate oligonucleotide primers [GCTC-GGATCC-C-(A/G)AA-(A/G)TT-NGT-(A/G)TA-(T/C)TG-(A/G)A (SEQ.ID.NO.:6) and GTCGG-GAATTC-ACN-AT(A/C/T)-GCN-TT(C/T)-TT(C/T)-GC (SEQ.ID.NO.:7)] were synthesized based on portions of two βGGI subunit peptide sequences [IFQYTNFEK (SEQ.ID.NO.:3) (antisense oligo) and TIAFFLSGLDMLD (SEQ.ID.NO.:I) respectively]. The polymerase chain reaction (PCR) (Saiki, R. K., Gelfand, D. H., Stoffel, S., Scharf, S. J., Higuchi, R., Horn, G. T., Mullis, K. B. and Erlich, H. A. (1988) Science 239:[…]) was performed using DNA obtained from a bovine brain eDNA library as template (Vogel, U.S., Dixon, R. A. F., Schaber, M.D., Diehl, R. E., Marshall, M. S., Scoinick, E. M., Sigal, I. S. and Gibbs, J. B. (1988) Nature 335:90-93). […]

`CC[C@H](C)[C@@H](CO[C@H](C(=O)N[C@@H](CC(C)C)C(=O)O)C(C)C)NC[C@@H](N)CS` [N-[2(S)-(2(S)-(2(R )-amino-3-mercaptopropylamino)-3(S)-methylpentyloxy)-3-methylbutanoyl]-leucine]: the IC50 against bGGPTase-I came to 37 nM; at FPTase, 450 nM.

Turning to `CC(C)C[C@H](NC(=O)[C@@H](/C=C/[C@@H](NC[C@@H](N)CS)C(C)C)C(C)C)C(=O)O` [5(S)-[2(R)-amino-3-mercaptopropylamino]-6-methyl(R)-i-propyl-3,4-E-heptenoyl-leucine], the IC50 against bGGPTase-I was determined as 21 nM; at FPTase it was 70 nM.

As for `CC[C@H](C)[C@H](NC(=O)[C@@H](NC[C@@H](N)CS)C(C)C)C(=O)N[C@@H](CC(C)C)C(=O)O` [N-(2(R)-amino-3-mercaptopropyl)-valyl-isoleucyl-leucine], the IC50 on bGGPTase-I was found to be 1.9 nM; at hGGPTase-I, 23 nM; at FPTase, 800 nM.
